{"source": "paper PMC5218480", "about": "(PLoS ONE, 2017)", "test_system": "MV-4-11 cells", "test": "Gene expression microarray analysis (Affymetrix PrimeView) and GSEA", "assay_type": "cell-based, human", "design": "RFU PODN (11730768_x_at) / Fold change /veh PODN (11730768_x_at) / RFU LINC00158 (11744669_a_at) / Fold change /veh LINC00158 (11744669_a_at) / RFU DUSP10 (11751237_a_at) / Fold change /veh DUSP10 (11751237_a_at) / RFU ID3 (11757404_x_at) / Fold change /veh ID3 (11757404_x_at) / RFU PLEKHG5 (11737974_s_at) / Fold change /veh PLEKHG5 (11737974_s_at) / RFU LRRC4B (11730491_at) / Fold change /veh LRRC4B (11730491_at) / RFU GIMAP4 (11747438_a_at) / Fold change /veh GIMAP4 (11747438_a_at) / RFU KRT8 (11758183_x_at) / Fold change /veh KRT8 (11758183_x_at) / RFU CNN1 (11734310_a_at) / Fold change /veh CNN1 (11734310_a_at) / RFU VPS37D (11726825_at) / Fold change /veh VPS37D (11726825_at) / RFU C10orf10 (11716522_x_at) / Fold change /veh C10orf10 (11716522_x_at) / RFU KIR2DL2 /// KIR2DL4 /// KIR2DL5A /// KIR2DL5B /// KIR2DS1 /// KIR2DS2 /// KIR2DS3 /// KIR2DS4 /// KIR3DL3 /// KIR3DL3 /// KIR3DS1 (11738374_at) / Fold change /veh KIR2DL2 /// KIR2DL4 /// KIR2DL5A /// KIR2DL5B /// KIR2DS1 /// KIR2DS2 /// KIR2DS3 /// KIR2DS4 /// KIR3DL3 /// KIR3DL3 /// KIR3DS1 (11738374_at) / RFU C1QL1 (11718748_at) / Fold change /veh C1QL1 (11718748_at) / RFU TMPRSS4 (11747572_a_at) / Fold change /veh TMPRSS4 (11747572_a_at) / RFU HAMP (11756126_x_at) / Fold change /veh HAMP (11756126_x_at) / RFU RNFT2 (11725882_a_at) / Fold change /veh RNFT2 (11725882_a_at) / RFU NR4A2 (11747474_a_at) / Fold change /veh NR4A2 (11747474_a_at) / RFU ABCC12 (11746883_a_at) / Fold change /veh ABCC12 (11746883_a_at) / RFU TMEM136 (11760407_x_at) / Fold change /veh TMEM136 (11760407_x_at) / RFU CLDN22 /// WWC2 (11732394_at) / Fold change /veh CLDN22 /// WWC2 (11732394_at) / RFU HLA-DPB1 (11760878_x_at) / Fold change /veh HLA-DPB1 (11760878_x_at) / RFU SPINT1 (11716480_a_at) / Fold change /veh SPINT1 (11716480_a_at) / RFU GAP43 (11754022_s_at) / Fold change /veh GAP43 (11754022_s_at) / RFU A4GNT (11735810_at) / Fold change /veh A4GNT (11735810_at) / RFU PRB3 (11715151_x_at) / Fold change /veh PRB3 (11715151_x_at) / RFU TUBB4B (11761932_at) / Fold change /veh TUBB4B (11761932_at) / RFU CAPN14 (11732068_a_at) / Fold change /veh CAPN14 (11732068_a_at) / RFU TMCC2 (11721928_a_at) / Fold change /veh TMCC2 (11721928_a_at) / RFU IRGQ (11745062_a_at) / Fold change /veh IRGQ (11745062_a_at) / RFU FAM174B (11720279_a_at) / Fold change /veh FAM174B (11720279_a_at) / RFU TMPRSS4 (11748680_a_at) / Fold change /veh TMPRSS4 (11748680_a_at) / RFU FAM212B (11763350_a_at) / Fold change /veh FAM212B (11763350_a_at) / RFU PLEKHG5 (11743358_a_at) / Fold change /veh PLEKHG5 (11743358_a_at) / RFU ZSCAN30 (11745921_a_at) / Fold change /veh ZSCAN30 (11745921_a_at) / RFU CMKLR1 (11741424_a_at) / Fold change /veh CMKLR1 (11741424_a_at) / RFU LOC101060620 /// MAPK8IP1 (11723275_at) / Fold change /veh LOC101060620 /// MAPK8IP1 (11723275_at) / RFU SPTSSB (11747773_x_at) / Fold change /veh SPTSSB (11747773_x_at) / RFU PRSS12 (11739890_at) / Fold change /veh PRSS12 (11739890_at) / RFU BIN1 (11741810_x_at) / Fold change /veh BIN1 (11741810_x_at) / RFU WNT11 (11732464_a_at) / Fold change /veh WNT11 (11732464_a_at) / RFU C10orf10 (11716521_a_at) / Fold change /veh C10orf10 (11716521_a_at) / RFU C5orf56 (11738089_at) / Fold change /veh C5orf56 (11738089_at) / RFU CYB561 (11721691_x_at) / Fold change /veh CYB561 (11721691_x_at) / RFU ANKRD19P (11752326_a_at) / Fold change /veh ANKRD19P (11752326_a_at) / RFU OR2T12 /// OR2T33 /// OR2T8 (11738714_s_at) / Fold change /veh OR2T12 /// OR2T33 /// OR2T8 (11738714_s_at) / RFU VCAN (11748164_a_at) / Fold change /veh VCAN (11748164_a_at) / RFU JSRP1 (11732532_at) / Fold change /veh JSRP1 (11732532_at) / RFU KRTAP10-11 (11738290_x_at) / Fold change /veh KRTAP10-11 (11738290_x_at) / RFU MYO3A (11730013_a_at) / Fold change /veh MYO3A (11730013_a_at) / RFU EBF3 (11725865_a_at) / Fold change /veh EBF3 (11725865_a_at) / RFU CAMK2N1 (11719241_x_at) / Fold change /veh CAMK2N1 (11719241_x_at) / RFU C5orf56 (11738088_a_at) / Fold change /veh C5orf56 (11738088_a_at) / RFU OLFML3 (11715873_a_at) / Fold change /veh OLFML3 (11715873_a_at) / RFU LOC100653217 /// NTM (11731650_a_at) / Fold change /veh LOC100653217 /// NTM (11731650_a_at) / RFU MAPK11 (11762145_a_at) / Fold change /veh MAPK11 (11762145_a_at) / RFU FIZ1 (11724087_x_at) / Fold change /veh FIZ1 (11724087_x_at) / RFU OASL (11726364_x_at) / Fold change /veh OASL (11726364_x_at) / RFU SOX15 (11748057_x_at) / Fold change /veh SOX15 (11748057_x_at) / RFU CD79A (11719716_a_at) / Fold change /veh CD79A (11719716_a_at) / RFU HIST1H1D (11736915_at) / Fold change /veh HIST1H1D (11736915_at) / RFU CASKIN2 (11723855_a_at) / Fold change /veh CASKIN2 (11723855_a_at) / RFU LOC730098 (11760151_x_at) / Fold change /veh LOC730098 (11760151_x_at) / RFU OR4N2 (11742367_at) / Fold change /veh OR4N2 (11742367_at) / RFU PRRT2 (11749266_a_at) / Fold change /veh PRRT2 (11749266_a_at) / RFU SNX32 (11753110_a_at) / Fold change /veh SNX32 (11753110_a_at) / RFU CDHR5 (11726645_a_at) / Fold change /veh CDHR5 (11726645_a_at) / RFU RCAN1 (11760418_a_at) / Fold change /veh RCAN1 (11760418_a_at) / RFU FAM167A (11723789_a_at) / Fold change /veh FAM167A (11723789_a_at) / RFU FAM26E (11764081_at) / Fold change /veh FAM26E (11764081_at) / RFU ISYNA1 (11749810_s_at) / Fold change /veh ISYNA1 (11749810_s_at) / RFU ACY1 (11761880_at) / Fold change /veh ACY1 (11761880_at) / RFU 11764098_at / Fold change /veh 11764098_at / RFU SAMD14 (11745864_x_at) / Fold change /veh SAMD14 (11745864_x_at) / RFU NPB (11741838_a_at) / Fold change /veh NPB (11741838_a_at) / RFU TMPRSS6 (11731388_a_at) / Fold change /veh TMPRSS6 (11731388_a_at) / RFU KRTAP10-2 (11738614_at) / Fold change /veh KRTAP10-2 (11738614_at) / RFU ARHGAP8 /// PRR5-ARHGAP8 (11727945_x_at) / Fold change /veh ARHGAP8 /// PRR5-ARHGAP8 (11727945_x_at) / RFU KRTAP5-7 /// NADSYN1 (11734609_at) / Fold change /veh KRTAP5-7 /// NADSYN1 (11734609_at) / RFU RASL12 (11751679_a_at) / Fold change /veh RASL12 (11751679_a_at) / RFU CDKN2B (11736163_a_at) / Fold change /veh CDKN2B (11736163_a_at) / RFU PRF1 (11729649_at) / Fold change /veh PRF1 (11729649_at) / RFU, ZNF638 /// ZNF638-IT1 / Fold change vs veh, ZNF638 /// ZNF638-IT1 / RFU, PANK3 / Fold change vs veh, PANK3 / RFU, SH3YL1 / Fold change vs veh, SH3YL1 / RFU, ZEB2 / Fold change vs veh, ZEB2 / RFU, NRIP1 / Fold change vs veh, NRIP1 / RFU, PTTG1IP / Fold change vs veh, PTTG1IP / RFU, CAPN2 / Fold change vs veh, CAPN2 / RFU, MED14 / Fold change vs veh, MED14 / RFU, SNORA58 / Fold change vs veh, SNORA58 / RFU, C1orf63 / Fold change vs veh, C1orf63 / RFU, LRRFIP1 / Fold change vs veh, LRRFIP1 / RFU, NDUFAF7 / Fold change vs veh, NDUFAF7 / RFU, SLC12A2 / Fold change vs veh, SLC12A2 / RFU, IBTK / Fold change vs veh, IBTK / RFU, ESF1 / Fold change vs veh, ESF1 / Fold change vs veh, TMEM50B / RFU, TAOK1 / Fold change vs veh, TAOK1 / RFU, ACBD3 / Fold change vs veh, ACBD3 / RFU, TMA16 / Fold change vs veh, TMA16 / RFU, RWDD3 / Fold change vs veh, RWDD3 / RFU, BCAT1 / Fold change vs veh, BCAT1 / RFU, EDEM3 / Fold change vs veh, EDEM3 / RFU, TMEM33 / Fold change vs veh, TMEM33 / RFU, WDR75 / Fold change vs veh, WDR75 / RFU, AHCTF1 / Fold change vs veh, AHCTF1 / RFU, TFRC / Fold change vs veh, TFRC / RFU, ZDHHC17 / Fold change vs veh, ZDHHC17 / RFU, NOM1 / Fold change vs veh, NOM1 / RFU, ARL8B / Fold change vs veh, ARL8B / RFU, ZBTB11 / Fold change vs veh, ZBTB11 / RFU, TAMM41 / Fold change vs veh, TAMM41 / RFU, KIAA1704 /// LOC100996395 / Fold change vs veh, KIAA1704 /// LOC100996395 / RFU, ING1 / Fold change vs veh, ING1 / RFU, TRMT61B / Fold change vs veh, TRMT61B / RFU, FUBP3 / Fold change vs veh, FUBP3 / RFU, TP53 / Fold change vs veh, TP53 / RFU, TNKS2 / Fold change vs veh, TNKS2 / RFU, ZFP14 / Fold change vs veh, ZFP14 / RFU, ACTR2 / Fold change vs veh, ACTR2 / RFU, PPP3R1 / Fold change vs veh, PPP3R1 / RFU, PIK3R1 / Fold change vs veh, PIK3R1 / RFU, HNRNPA1 / Fold change vs veh, HNRNPA1 / RFU, RNF170 / Fold change vs veh, RNF170 / RFU, ZNF28 / Fold change vs veh, ZNF28 / RFU, RNGTT / Fold change vs veh, RNGTT / RFU, OGT / Fold change vs veh, OGT / RFU, BRD1 / Fold change vs veh, BRD1 / RFU, MARS / Fold change vs veh, MARS / RFU, ZNF655 / Fold change vs veh, ZNF655 / RFU, FAHD1 / Fold change vs veh, FAHD1 / RFU, BDP1 / Fold change vs veh, BDP1 / RFU, LRRCC1 / Fold change vs veh, LRRCC1 / RFU, ARID1A / Fold change vs veh, ARID1A / RFU, ZNF146 / Fold change vs veh, ZNF146 / RFU, ZNF330 / Fold change vs veh, ZNF330 / RFU, GPN3 / Fold change vs veh, GPN3 / RFU, C9orf123 / Fold change vs veh, C9orf123 / RFU, N4BP2L2 / Fold change vs veh, N4BP2L2 / RFU, ARFIP1 / Fold change vs veh, ARFIP1 / RFU, FAM179B / Fold change vs veh, FAM179B / RFU, BCL10 / Fold change vs veh, BCL10 / RFU, UHRF1BP1L / Fold change vs veh, UHRF1BP1L / RFU, BET1 / Fold change vs veh, BET1 / RFU, CNOT2 / Fold change vs veh, CNOT2 / RFU, ZNF268 / Fold change vs veh, ZNF268 / Fold change vs veh, ZNF507 / RFU, DGCR2 / Fold change vs veh, DGCR2 / RFU, WDSUB1 / Fold change vs veh, WDSUB1 / Fold change vs veh, HSP90B1 /// MIR3652 / RFU, ADSS / Fold change vs veh, ADSS / RFU, GK / Fold change vs veh, GK / RFU, ZNF148 / Fold change vs veh, ZNF148 / RFU, TAF9 / Fold change vs veh, TAF9 / RFU, SLC1A5 / Fold change vs veh, SLC1A5 / RFU, SLMO2 / Fold change vs veh, SLMO2 / RFU, ABCC4 / Fold change vs veh, ABCC4 / RFU, LOC101060439 /// RAP1B / Fold change vs veh, LOC101060439 /// RAP1B / RFU, RFX7 / Fold change vs veh, RFX7 / RFU, GTPBP10 / Fold change vs veh, GTPBP10 / RFU, CNEP1R1 / Fold change vs veh, CNEP1R1 / RFU, BIVM-ERCC5 /// ERCC5 / Fold change vs veh, BIVM-ERCC5 /// ERCC5 / RFU, ILF3 / Fold change vs veh, ILF3 / RFU 11762660_at / Fold change /veh 11762660_at / RFU VCAN (11757783_s_at) / Fold change /veh VCAN (11757783_s_at) / RFU DDX43 (11728927_at) / Fold change /veh DDX43 (11728927_at) / RFU KRT8 (11758188_x_at) / Fold change /veh KRT8 (11758188_x_at) / RFU NKD1 (11759106_at) / Fold change /veh NKD1 (11759106_at) / RFU SRD5A1 (11742802_a_at) / Fold change /veh SRD5A1 (11742802_a_at) / RFU TPSAB1 /// TPSB2 (11721975_s_at) / Fold change /veh TPSAB1 /// TPSB2 (11721975_s_at) / RFU GSTM3 (11746129_a_at) / Fold change /veh GSTM3 (11746129_a_at) / RFU IL23R (11737362_x_at) / Fold change /veh IL23R (11737362_x_at) / RFU TMEM51 (11727254_a_at) / Fold change /veh TMEM51 (11727254_a_at) / RFU PIWIL2 (11732686_x_at) / Fold change /veh PIWIL2 (11732686_x_at) / RFU ORM1 (11744905_x_at) / Fold change /veh ORM1 (11744905_x_at) / RFU CCDC152 (11743942_at) / Fold change /veh CCDC152 (11743942_at) / RFU ECM1 (11717891_a_at) / Fold change /veh ECM1 (11717891_a_at) / RFU IL23R (11748794_a_at) / Fold change /veh IL23R (11748794_a_at) / RFU TNFAIP8L3 (11732012_x_at) / Fold change /veh TNFAIP8L3 (11732012_x_at) / RFU MBOAT4 (11741988_at) / Fold change /veh MBOAT4 (11741988_at) / RFU 11764193_at / Fold change /veh 11764193_at / RFU TMEM53 (11763286_at) / Fold change /veh TMEM53 (11763286_at) / RFU MAGEB2 (11727129_at) / Fold change /veh MAGEB2 (11727129_at) / RFU TMEM200A (11744735_a_at) / Fold change /veh TMEM200A (11744735_a_at) / RFU CCDC152 (11751479_a_at) / Fold change /veh CCDC152 (11751479_a_at) / RFU FAM211A (11726209_a_at) / Fold change /veh FAM211A (11726209_a_at) / RFU RGS16 (11746705_a_at) / Fold change /veh RGS16 (11746705_a_at) / RFU VCAN (11755009_s_at) / Fold change /veh VCAN (11755009_s_at) / RFU RHOB (11743442_s_at) / Fold change /veh RHOB (11743442_s_at) / RFU RGS16 (11720943_a_at) / Fold change /veh RGS16 (11720943_a_at) / RFU RGS16 (11720944_at) / Fold change /veh RGS16 (11720944_at) / RFU, VPS4B / Fold change vs veh, VPS4B / RFU, CREB1 / Fold change vs veh, CREB1 / RFU, DNAJC13 / Fold change vs veh, DNAJC13 / RFU, GNAQ / Fold change vs veh, GNAQ / RFU, CDK5R1 / Fold change vs veh, CDK5R1 / RFU, ZRANB3 / Fold change vs veh, ZRANB3 / RFU, CUL4A / Fold change vs veh, CUL4A / RFU, CCNY / Fold change vs veh, CCNY / RFU, UFL1 / Fold change vs veh, UFL1 / RFU, COG3 / Fold change vs veh, COG3 / RFU, DIAPH2 / Fold change vs veh, DIAPH2 / RFU, SKA2 / Fold change vs veh, SKA2 / RFU, AFF3 / Fold change vs veh, AFF3 / RFU, LMF1 / Fold change vs veh, LMF1 / RFU, IPO11 / Fold change vs veh, IPO11 / RFU, DFFB / Fold change vs veh, DFFB / RFU, FOXP1 / Fold change vs veh, FOXP1 / RFU, CARD8 / Fold change vs veh, CARD8 / RFU, STRN3 / Fold change vs veh, STRN3 / RFU, ADK / Fold change vs veh, ADK / RFU, RASSF2 / Fold change vs veh, RASSF2 / RFU, WIPF1 / Fold change vs veh, WIPF1 / RFU, LARP1B / Fold change vs veh, LARP1B / RFU, RASA1 / Fold change vs veh, RASA1 / RFU, RB1 / Fold change vs veh, RB1 / RFU, PPFIA1 / Fold change vs veh, PPFIA1 / RFU, MAT2A / Fold change vs veh, MAT2A / RFU, CCT5 / Fold change vs veh, CCT5 / RFU, WDR92 / Fold change vs veh, WDR92 / RFU, CUX1 / Fold change vs veh, CUX1 / RFU, TTC7A / Fold change vs veh, TTC7A / RFU, TMEM135 / Fold change vs veh, TMEM135 / RFU, DEPTOR / Fold change vs veh, DEPTOR / RFU, CPM / Fold change vs veh, CPM / RFU, DNAJB6 / Fold change vs veh, DNAJB6 / RFU, CACNA2D3 / Fold change vs veh, CACNA2D3 / RFU, DTX4 / Fold change vs veh, DTX4 / RFU, TFCP2 / Fold change vs veh, TFCP2 / RFU, GMCL1 /// GMCL1P1 / Fold change vs veh, GMCL1 /// GMCL1P1 / RFU, AEBP2 / Fold change vs veh, AEBP2 / RFU, SNHG1 /// SNORD22 /// SNORD25 /// SNORD26 /// SNORD27 /// SNORD28 /// SNORD29 /// SNORD31 / Fold change vs veh, SNHG1 /// SNORD22 /// SNORD25 /// SNORD26 /// SNORD27 /// SNORD28 /// SNORD29 /// SNORD31 / Fold change (Aza/veh), C12orf56 (ProbeSet 11735607_a_at) / Fold change (ACY-1035/veh), C12orf56 (ProbeSet 11735607_a_at) / Fold change (Aza/veh), FGFR1OP (ProbeSet 11751329_s_at) / Fold change (ACY-1035/veh), FGFR1OP (ProbeSet 11751329_s_at) / Fold change (Aza/veh), VPS36 (ProbeSet 11739960_a_at) / Fold change (ACY-1035/veh), VPS36 (ProbeSet 11739960_a_at) / RFU SYPL1 (11715823_x_at) / Fold change /veh SYPL1 (11715823_x_at) / RFU IGFBP7 (11715501_s_at) / Fold change /veh IGFBP7 (11715501_s_at) / RFU REEP3 (11722064_at) / Fold change /veh REEP3 (11722064_at) / RFU IGLL1 (11728026_x_at) / Fold change /veh IGLL1 (11728026_x_at): dose or concentration left out as unconfirmed", "settings": "ProbeSet 11748670_a_at; LIST B"}
{"smiles": "Nc1ncn([C@@H]2O[C@H](CO)[C@@H](O)[C@H]2O)c(=O)n1", "note": "[azacitidine]", "values": [{"measurement": "RFU, PIK3R1", "value": 80.66, "unit": "RFU"}]}
